In patent US20240217953A1, “BICYCLIC SUBSTITUTED AROMATIC CARBOXYLIC ACID COMPOUNDS” (CHIA TAI TIANQING PHARMACEUTICAL GROUP CO., LTD., priority 2021, published 2024):
pIC50: −log10 of the molar value.

How the values were obtained:
[1] = Pharmacokinetic study in rats; type: in vivo; conditions: rat; male SD rats, oral intragastric administration, 10 mg/kg, plasma
Procedure: To determine the drug concentration in the plasma of the test animals (male SD rats) at different time points after oral intragastric administration of the compounds disclosed herein by an LC/MS/MS method. To investigate the pharmacokinetic performance of the compounds disclosed herein in rats and to evaluate the pharmacokinetic characteristics.
Healthy male rats weighing 200-300 g, 2 rats in each group.
The compound disclosed herein was formulated into a 1 mg/mL clear solution with an aqueous solution of 0.5% MC (4000 cP)/0.5% Tween 80. Rats, after fasting overnight, were subjected to oral intragastric administration at a dose of 10 mg/kg. Blood was collected before administration and 0.25, 0.5, 1, 2, 4, 7, and 24 h after the administration, placed in heparin anticoagulation tubes, and centrifuged at 7000 rpm (5204 g) at 4° C. The plasma was separated and stored at −80° C. Four hours after administration, feeding was resumed. LC/MS/MS method was used to determine the content of the test compound in the plasma of the rats after oral administration. The plasma samples were analyzed after pretreatment to precipitate proteins.

[2] = biological target: complement alternative pathway in human serum; test: Inhibition of Wieslab complement alternative pathway activation (enzyme activity determination); type: biochemical; conditions: human serum diluted 1:23, Wieslab alternative pathway kit, absorbance at 405 nm; read-out: IC50 for alternative pathway membrane attack complex (AP MAC)
Procedure: To determine the inhibitory activity of the test compounds against the complement alternative pathway in human serum by using a Wieslab complement system alternative pathway kit.
The serum was diluted with a diluent (1:23). Drugs were added to the diluted serum in 8 concentration gradients, with the highest concentration of 10 mM or 50 mM and 5-fold gradient dilution. The resulting mixture was incubated at room temperature for 15 min. The compound and the serum mixture were added to a 96-well plate (100 μL/well) provided in the kit and activated at 37° C. for 1 h. The mixture was washed three times with a washing buffer. The detection antibody (100 μL) provided in the kit was added and the mixture was incubated at room temperature for 30 min. The mixture was washed three times with a washing buffer. A substrate (100 μL) was added and the mixture was incubated at room temperature for 30 min. The absorbance at 405 nm was measured using a microplate reader.

[3] = biological target: human complement Factor B protein (Homo sapiens, UniProt P00751); test: Human complement Factor B protein binding determination (TR-FRET method); conditions: biotinylated Factor B 25 nM, Cy5-labeled probe 75 nM, PBS pH 7.4, 2 h
Chain of human complement Factor B protein (P00751 26-764): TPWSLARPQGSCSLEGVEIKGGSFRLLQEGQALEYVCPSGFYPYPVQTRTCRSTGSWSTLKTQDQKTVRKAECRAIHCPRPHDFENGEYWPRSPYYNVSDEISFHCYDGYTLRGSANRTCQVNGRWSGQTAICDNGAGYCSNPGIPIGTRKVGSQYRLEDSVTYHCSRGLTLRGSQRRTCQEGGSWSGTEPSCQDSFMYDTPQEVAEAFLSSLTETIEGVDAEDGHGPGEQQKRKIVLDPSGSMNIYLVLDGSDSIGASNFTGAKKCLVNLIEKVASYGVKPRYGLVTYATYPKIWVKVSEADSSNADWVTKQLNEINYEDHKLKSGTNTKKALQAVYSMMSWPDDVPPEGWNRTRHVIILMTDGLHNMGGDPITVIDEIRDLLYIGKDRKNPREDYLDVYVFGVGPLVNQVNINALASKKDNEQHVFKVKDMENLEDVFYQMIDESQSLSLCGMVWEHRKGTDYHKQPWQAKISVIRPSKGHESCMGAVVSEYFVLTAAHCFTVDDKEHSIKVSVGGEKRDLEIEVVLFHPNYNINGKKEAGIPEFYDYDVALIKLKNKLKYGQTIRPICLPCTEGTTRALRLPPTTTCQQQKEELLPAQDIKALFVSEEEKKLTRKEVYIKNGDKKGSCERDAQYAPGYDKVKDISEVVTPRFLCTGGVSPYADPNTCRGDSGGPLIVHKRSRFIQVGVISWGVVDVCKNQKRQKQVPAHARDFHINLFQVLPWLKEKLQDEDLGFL
Procedure: To determine the binding activity of the test compounds to human complement Factor B protein by using TR-FRET method.
Drugs were added to phosphate buffered saline PBS (pH 7.4) starting at 10 μM with 4-fold dilution and 10 concentrations in total. […] Time-resolved fluorescence resonance energy transfer (TR-FRET) data was measured using 330 nm as the excitation wavelength and 665 nm as the emission wavelength.

COc1cc(C)c2[nH]ccc2c1CN1CCC2CC1(c1ccc(C(=O)O)cc1)CCN2CC(F)(F)F (stereo not drawn) [Compound 2]
AUC(0-t) [1]: 14.7 µM·h
Cmax [1]: 3.25 µM
Tmax [1]: 0.5 h
half-life [1]: 4.65 h
pIC50 [2]: > 7.00

CCOC1CC2CCC(c3ccc(C(=O)O)nc3)(C1)N2Cc1c(OC)cc(C)c2[nH]ccc12 (stereo not drawn) [Compound 11]
pIC50 [3]: > 7.00

COc1cc(C)c2[nH]ccc2c1CN1C2CCCC1(c1ccc(C(=O)O)cc1)CC2 (single isomer, unassigned) [Compound 7A]
pIC50 [2]: > 7.00
pIC50 [3]: > 7.00

COc1cc(C)c2[nH]ccc2c1CN1CCC2CC1(c1ccc(C(=O)O)cc1)CCN2CC(F)F (stereo not drawn) [Compound 3]
pIC50 [2]: > 7.00

CCOC1CC2CCC(c3ccc(C(=O)O)cn3)(C1)N2Cc1c(OC)cc(C)c2[nH]ccc12 (single isomer, unassigned) [Compound 9A]
pIC50 [2]: > 7.00
pIC50 [3]: > 7.00

COc1cc(C)c2[nH]ccc2c1CN1C2CCC1(c1ccc(C(=O)O)cc1)CC(C)C2 (stereo not drawn) [Compound 12]
pIC50 [3]: > 7.00
